Results as given in BindingDB's records for doi:10.7270/Q2TX3CTT (Broad Institute, 2010).
Structures can show the parent of a compound that is named as a salt.

Molecular target: Glycogen synthase kinase-3 beta (Homo sapiens, UniProt P49841)
Assay: concentration-response blocking of human GSK3B – biochemical, luminescence, cell-free homogeneous, retest, dose response (AID 434954)

Sequence of Glycogen synthase kinase-3 beta (P49841 whole entry): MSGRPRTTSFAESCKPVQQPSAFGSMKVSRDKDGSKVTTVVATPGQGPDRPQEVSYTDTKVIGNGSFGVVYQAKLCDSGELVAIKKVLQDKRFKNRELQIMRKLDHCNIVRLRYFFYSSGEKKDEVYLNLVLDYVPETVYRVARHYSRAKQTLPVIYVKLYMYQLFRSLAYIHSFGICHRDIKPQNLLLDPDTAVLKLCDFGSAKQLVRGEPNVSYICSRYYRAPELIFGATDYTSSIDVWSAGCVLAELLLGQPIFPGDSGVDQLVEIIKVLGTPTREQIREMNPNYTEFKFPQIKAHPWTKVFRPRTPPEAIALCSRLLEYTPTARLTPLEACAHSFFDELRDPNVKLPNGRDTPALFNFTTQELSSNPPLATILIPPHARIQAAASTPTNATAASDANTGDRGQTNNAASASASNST

## Cc1cccc(/C=C2/Sc3ccc(C(=O)NCCN4CCCC4)cc3NC2=O)c1 [(2E)-2-[(3-methylphenyl)methylidene]-3-oxidanylidene-N-(2-pyrrolidin-1-ylethyl)-4H-1,4-benzothiazine-6-carboxamide]
  EC50: 6.28 µM

## COc1ccc(-c2nn(-c3ccccc3)cc2CO)cc1 [MLS000534260]
  EC50: > 300 µM

## NS(=O)(=O)c1ccc(N/N=C2\C(=O)Nc3ccc(Br)cc32)cc1 [SMR000592222]
  EC50: > 300 µM

## CN(Cc1c(C(=O)NN=Cc2cccc(O)c2)nnn1-c1nonc1N)C1CCCCC1 [MLS001142859]
  EC50: 0.712 µM

## COc1ccc(CN(CC(=O)NCc2ccccc2)C(=O)CCC(=O)Nc2ccccn2)cc1
  EC50: > 300 µM

## CC[n+]1c(/C=C/N(C)c2ccccc2)oc2ccc(F)cc21
  EC50: > 300 µM

## COc1cccc(C(=O)NCC(=O)NN=C(C)C=Cc2ccccc2)c1 [MLS000723417]
  EC50: > 300 µM

## CC(C)CNc1nc(N)c([N+](=O)[O-])c(N2CCCCCC2)n1 [6-(azepan-1-yl)-N2-(2-methylpropyl)-5-nitro-pyrimidine-2,4-diamine]
  EC50: 98 µM

## CN(CC(=O)OCC(=O)Nc1ccccc1)S(=O)(=O)c1ccc(Cl)cc1 [(2-anilino-2-oxoethyl) 2-[(4-chlorophenyl)sulfonyl-methylamino]acetate]
  EC50: > 300 µM

## COc1cccc2cc(C(=O)CS(=O)(=O)c3ccc(C(C)(C)C)cc3)c(=O)oc12 [3-[2-(4-tert-butylphenyl)sulfonyl-1-oxoethyl]-8-methoxy-1-benzopyran-2-one]
  EC50: > 300 µM

## CCCCC(=O)Nc1nn(CC(C)C)c2nc3ccccc3cc12 [SMR000043369]
  EC50: > 300 µM

## O=NCc1ccc(Sc2ccccc2)c([N+](=O)[O-])c1 [N-[(3-nitro-4-phenylsulfanylphenyl)methylidene]hydroxylamine]
  EC50: 39.3 µM

## CS(=O)(=O)c1ccccc1-c1nnc(NC(=O)c2ccc3ncsc3c2)o1
  EC50: > 300 µM

## COc1cccc(C2Nc3ccccc3N=C3CC(C)(C)CC(=O)C32)c1 (stereo unspecified) [MLS001207292]
  EC50: > 300 µM

## O=C(COC(=O)C1CCN(S(=O)(=O)c2ccccc2)CC1)NC(=O)c1ccc(OC(F)F)cc1 [MLS000394677]
  EC50: > 300 µM

## O=c1[nH]c(N=NCc2ccccc2)nc2ccccc12 [MLS000571403]
  EC50: > 300 µM

## CN1CCc2c(sc3c2c(=O)n(-c2ccccc2)c2n[nH]c(=S)n32)C1 [MLS000558136]
  EC50: 21.7 µM

## CNc1nc(N)nc(-c2cc(Cl)ccc2OC)n1 [6-(5-chloranyl-2-methoxy-phenyl)-N2-methyl-1,3,5-triazine-2,4-diamine]
  EC50: > 300 µM

## COc1nc(NCCN2CCOCC2)nc(Nc2ccc([N+](=O)[O-])cc2)n1
  EC50: > 300 µM

## CCC(OCC(O)CN1CCCCC1)c1ccccc1 (stereo unspecified)
  EC50: > 300 µM

## CC1=C(C(=O)Nc2ccccc2F)C(c2ccsc2)C2C(=O)CC(C)(C)CC2=N1 (stereo unspecified) [N-(2-fluorophenyl)-2,7,7-trimethyl-5-oxo-4-(3-thiophenyl)-1,4,6,8-tetrahydroquinoline-3-carboxamide]
  EC50: > 300 µM

## COc1cc(OC)c(OC)cc1CNCC1COc2ccccc2O1 (stereo unspecified) [SMR000516658]
  EC50: > 300 µM

## Cn1c(=O)c2[nH]c(CN3CCN(Cc4ccccc4)CC3)nc2n(C)c1=O [SMR000120891]
  EC50: > 300 µM

## Cc1ccc(-n2c(N)c(C(=O)NCc3cccnc3)sc2=S)cc1 [MLS000535145]
  EC50: > 300 µM

## CC(=O)c1ccc(NC(=O)NNS(=O)(=O)c2ccc([N+](=O)[O-])cc2)cc1
  EC50: > 300 µM

## COc1ccc(OC)c(-c2cc(-c3cccnc3)nc(N)c2C#N)c1 [2-amino-4-(2,5-dimethoxyphenyl)-6-pyridin-3-ylpyridine-3-carbonitrile]
  EC50: > 300 µM

## CCOc1ccccc1NC(=O)N1CCC2(CC1)OCCO2 [MLS000581263]
  EC50: > 300 µM

## O=C(Oc1ccc(F)c(F)c1)c1ccc2c(=O)n3c(nc2c1)CCC3 [9-oxo-2,3-dihydro-1H-pyrrolo[2,1-b]quinazoline-6-carboxylic acid (3,4-difluorophenyl) ester]
  EC50: > 300 µM

## COc1ccc(-c2nn(-c3ccccc3)cc2C=NNC(=S)NC(C)C)cc1OC [1-[[3-(3,4-dimethoxyphenyl)-1-phenyl-4-pyrazolyl]methylideneamino]-3-propan-2-ylthiourea]
  EC50: > 300 µM

## CCOC(=O)C=C(C)[N+]1=N[C-](c2ccc(OC)cc2)CC1c1cccc([N+](=O)[O-])c1 (stereo unspecified) [(Z)-3-[5-(4-methoxyphenyl)-3-(3-nitrophenyl)-3,4-dihydropyrazol-2-yl]-2-butenoic acid ethyl ester]
  EC50: > 300 µM

## CC(C(=O)Nc1nc2ccccc2s1)n1cc([N+](=O)[O-])cn1 (stereo unspecified) [SMR000307349]
  EC50: > 300 µM

## Nc1ccc(C(=O)Nc2ccccc2C(=O)O)cc1
  EC50: > 300 µM

## COc1cc(C=C2SC(Nc3ccc(O)cc3)=NC2=O)ccc1O [MLS000778276]
  EC50: 23.3 µM

## Cc1ccc(S(=O)(=O)N2CN(Cc3ccco3)c3nc4ccccc4nc32)cc1 [SMR000145587]
  EC50: > 300 µM

## Cc1nn(Cc2ccc(Cl)c(Cl)c2)c(C)c1NC(=O)c1noc2c1CCCCC2 [SMR000023628]
  EC50: > 300 µM

## CCCN(CCC)Cc1c(C(=O)NN=C/C(C)=C\c2ccccc2)nnn1-c1nonc1N [1-(4-azanyl-1,2,5-oxadiazol-3-yl)-5-[(dipropylamino)methyl]-N-[[(Z)-2-methyl-3-phenyl-prop-2-enylidene]amino]-1,2,3-triazole-4-carboxamide]
  EC50: > 300 µM

## Cc1nc(N2CCOCC2)nc(N2CCCCC2C)c1[N+](=O)[O-] (stereo unspecified) [MLS001012395]
  EC50: > 300 µM

## CCOC(=O)COc1ccc(C(=O)c2ccccc2)c(O)c1 [(4-Benzoyl-3-hydroxy-phenoxy)-acetic acid ethyl ester]
  EC50: > 300 µM

## CC(C)Nc1nc(N)c(C(=O)C23CC4CC(CC(C4)C2)C3)s1 [1-adamantyl-[4-azanyl-2-(propan-2-ylamino)-1,3-thiazol-5-yl]methanone]
  EC50: 23.5 µM

## COc1ccc(C=C2SC(Nc3ccccc3OC)=NC2=O)cc1 [SMR000517219]
  EC50: > 300 µM

## O=C(NC1CCC(C(=O)O)CC1)OCc1ccccc1 (stereo unspecified) [4-(phenylmethoxycarbonylamino)cyclohexane-1-carboxylic acid]
  EC50: > 300 µM

## O=C(Cc1ccc(Cl)cc1)Nc1ncc([N+](=O)[O-])s1 [2-(4-chlorophenyl)-N-(5-nitro-1,3-thiazol-2-yl)ethanamide]
  EC50: 30.4 µM

## Cc1ccc2nc(-c3ccccc3)cn2c1 [6-methyl-2-phenyl-imidazo[1,2-a]pyridine;hydrobromide]
  EC50: 29 µM

## O=C(C1=C[C@@H](c2ccc(C(F)(F)F)cc2)C[C@@H](OCCCCO)O1)N1CCN(Cc2ccccc2)CC1 [SMR000389639]
  EC50: > 300 µM

## CSc1nc(NCC(C)C)c2c3c(sc2n1)CN(C)CC3 [SMR000148856]
  EC50: > 300 µM

## Cc1ccc(Nc2nc(NCC3CCCO3)nc(N)c2[N+](=O)[O-])cc1C (stereo unspecified) [SMR000219669]
  EC50: 10.7 µM

## c1ccc(CNCC2COc3ccccc3O2)cc1 (stereo unspecified) [Benzyl-(2,3-dihydro-benzo[1,4]dioxin-2-ylmethyl)-amine]
  EC50: > 300 µM

## c1cncc(-c2nc(NCc3cccs3)c3ccccc3n2)c1
  EC50: > 300 µM

## O=C(O)COCC(=O)N1CCN(C(c2ccccc2)c2ccccc2)CC1 [2-[2-(4-benzhydrylpiperazino)-2-oxoethoxy]acetic acid]
  EC50: > 300 µM

## O=c1c(-c2ccc(O)cc2)coc2cc(O)cc(O)c12 [Prunetol]
  EC50: > 300 µM

## O=C1N=C(NCc2ccccc2)SC1=Cc1ccccc1 [MLS000589841]
  EC50: > 300 µM

## Cc1c(NC(=O)C(C)n2cc([N+](=O)[O-])cn2)c(=O)n(-c2ccccc2)n1C (stereo unspecified) [N-(1,5-dimethyl-3-oxo-2-phenylpyrazol-4-yl)-2-(4-nitropyrazol-1-yl)propanamide]
  EC50: > 300 µM

## N#Cc1c(N)nc2c(c1N)=C(N)SC1=NC(=O)CC(c3ccccc3)C=21 (stereo unspecified) [SMR000147833]
  EC50: > 300 µM

## CSc1nc2n(n1)C(c1cccs1)C1C(=O)CCCC1=N2 (stereo unspecified) [SMR000295648]
  EC50: > 300 µM

## O=C1NC(c2cccs2)Nc2sc3c(c21)CCCC3 (stereo unspecified) [2-thiophen-2-yl-2,3,5,6,7,8-hexahydro-1H-[1]benzothiolo[2,3-d]pyrimidin-4-one]
  EC50: > 300 µM

## CC1(C)CC(=O)C2C(=NC3=C(C(=O)c4ccccc43)C2c2ccc(O)cc2)C1 (stereo unspecified) [10-(4-hydroxyphenyl)-7,7-dimethyl-5,6,8,10-tetrahydroindeno[1,2-b]quinoline-9,11-dione]
  EC50: > 300 µM

## O=C(/[O+]=N/[CH-]c1ccc(N2CCCCC2)c([N+](=O)[O-])c1)c1c(F)cccc1F [MLS000326582]
  EC50: > 300 µM

## COC(=O)C(C)Sc1ccc2nnc(-c3ccc(F)cc3)n2n1 (stereo unspecified) [MLS000093331]
  EC50: 11.9 µM

## CNc1nc(N)c([N+](=O)[O-])c(NCCO)n1
  EC50: 67.1 µM

## Cc1c(Br)c([N+](=O)[O-])nn1CCCC(=O)N1CCN(c2ccccc2)CC1 [SMR000206162]
  EC50: > 300 µM

## O=C(O)c1ccccc1Nc1ccc(OC(F)F)cc1 [SMR000372165]
  EC50: > 300 µM

## Cc1cc2cc(CN(CCCN3CCOCC3)C(=O)NC3CCCCC3)c(=O)[nH]c2cc1C [3-cyclohexyl-1-[(6,7-dimethyl-2-oxo-1H-quinolin-3-yl)methyl]-1-(3-morpholin-4-ylpropyl)urea]
  EC50: > 300 µM

## Nc1nonc1-n1nnc(C(=O)NN=Cc2cc(Cl)ccc2O)c1CN1CCCCCC1 [SMR000620619]
  EC50: 8.67 µM

## COc1ccc(C2c3c(n[nH]c3C)N=C3CCCC(=O)C32)cc1OC (stereo unspecified) [SMR000353889]
  EC50: > 300 µM

## COc1cccc(C(=O)c2sc(NC(C)C)nc2N)c1 [MLS000036929]
  EC50: 0.33 µM

## COc1ccc(-c2noc(CSc3nnc(-c4ccccc4)n3C)n2)cc1 [3-(4-methoxyphenyl)-5-[(4-methyl-5-phenyl-1,2,4-triazol-3-yl)sulfanylmethyl]-1,2,4-oxadiazole]
  EC50: > 300 µM

## CC1=C(C#N)C(=O)NC(=O)C1=NNc1ccc(S(N)(=O)=O)cc1 [4-[(2Z)-2-(5-cyano-4-methyl-2,6-dioxopyridin-3-ylidene)hydrazinyl]benzenesulfonamide]
  EC50: 0.917 µM

## O=c1cc(-c2ccccc2)c2ccc(O)cc2o1 [7-Hydroxy-4-phenyl-chromen-2-one]
  EC50: 24.6 µM

## COCCNc1nc(N)c([N+](=O)[O-])c(NCCO)n1 [2-[[6-azanyl-2-(2-methoxyethylamino)-5-nitro-pyrimidin-4-yl]amino]ethanol]
  EC50: 28.5 µM

## O=[N+]([O-])c1cc(-c2nc(-c3ccncc3)no2)ccc1Cl [MLS000331762]
  EC50: > 300 µM

## Nc1ncc(-c2ccccc2)c(-c2ccc(O)cc2O)n1
  EC50: 7.69 µM
